Eight molecules from PubChem BioAssay AID1259407 (Chemical Carcinogenesis Research Information System (CCRIS), 2018) can be followed below.

Active and inactive are the calls of the source. The rule behind the calls is not given here.

This data set deals with CCRIS mutagenicity, Ames/micronucleus/aberration tests. The data set can be described thus: CCRIS mutagenicity studies.
Setting [1] is: Test System: AMES SALMONELLA TYPHIMURIUM, Strain/Indicator: TA98, Metabolic Activation: NONE, Method: PREINCUBATION
[2] abbreviates: Test System: AMES SALMONELLA TYPHIMURIUM, Strain/Indicator: TA100, Metabolic Activation: NONE, Method: PREINCUBATION
The mark [3] stands for this setting: Test System: AMES SALMONELLA TYPHIMURIUM, Strain/Indicator: TA100, Metabolic Activation: RAT, LIVER, S-9, AROCLOR 1254, Method: PREINCUBATION

On to `Nc1nc2c(ncn2COCCO)c(=O)[nH]1`, for which the mutagenic call (End Point: IN VITRO CHROMOSOMAL ABERRATIONS, Test System: CHO CELLS (CHO-HSVTK), Metabolic Activation: NONE) is “active; positive (structural changes); concentration chosen also induced apoptosis”.
Take `CCC(=O)OCc1ccccc1[N+](=O)[O-]`: the mutagenic call was “inactive; negative” under setting [1], “inactive; negative” under setting [2] and “inactive; negative” under setting [3].
Take `O[C@H]1[C@@H]2O[C@@H]2C=C[C@@H]1O`: the mutagenic call runs as follows: under setting [1], “inactive; negative”; under setting [2], “inactive; negative”; (Test System: AMES SALMONELLA TYPHIMURIUM, Strain/Indicator: TA1535, Metabolic Activation: NONE, Method: PREINCUBATION) “active; positive”.
`Oc1c2c(c3c(ccc4c3ccc3ccc5ccccc5c34)c1O)O2`: the mutagenic call reads like this: (Test System: AMES SALMONELLA TYPHIMURIUM, Strain/Indicator: TA97, Metabolic Activation: NONE, Method: PREINCUBATION) “active; positive”; under setting [1], “active; positive”; under setting [2], “active; positive”; (Test System: AMES SALMONELLA TYPHIMURIUM, Strain/Indicator: TA104, Metabolic Activation: NONE, Method: PREINCUBATION) “active; positive”; (Test System: CHINESE HAMSTER V-79, Strain/Indicator: V-79/6-THIOGUANINE, Metabolic Activation: NONE) “active; positive”.
As for `CCCCNC(=O)c1cc(N)ccc1Oc1ccc(C)cc1`, the mutagenic call is, setting by setting: (Test System: Ames Salmonella typhimurium, Strain/Indicator: TA98, Metabolic Activation: None, Method: Preincubation) “inactive; negative. data for pa31 mentioned in abstract only”; (Test System: Ames Salmonella typhimurium, Strain/Indicator: TA98, Metabolic Activation: Rat, Liver, S-9, Phenobarbital and beta-naphthoflavone, Method: Preincubation) “active; positive”; (Test System: Ames Salmonella typhimurium, Strain/Indicator: TA100, Metabolic Activation: None, Method: Preincubation) “inactive; negative. data for pa31 mentioned in abstract only”; (Test System: Ames Salmonella typhimurium, Strain/Indicator: TA100, Metabolic Activation: Rat, Liver, S-9, Phenobarbital and beta-naphthoflavone, Method: Preincubation) “active; positive”; (Test System: Ames Salmonella typhimurium, Strain/Indicator: TA102, Metabolic Activation: None, Method: Preincubation) “inactive; negative. data for pa31 mentioned in abstract only”; (Test System: Ames Salmonella typhimurium, Strain/Indicator: TA1535, Metabolic Activation: None, Method: Preincubation) “inactive; negative. data for pa31 mentioned in abstract only”. Also, the mutagenic call (Test System: Ames Salmonella typhimurium, Strain/Indicator: TA1537, Metabolic Activation: None, Method: Preincubation) was “inactive; negative. data for pa31 mentioned in abstract only”.
As for `Cc1cc2c(O)cccc2c2cc3c(cc12)C=C[C@H](O)[C@H]3O`, under setting [3], the mutagenic call is “active; positive”.
With `CCCCOc1cc(Cl)ccc1C(=O)NOC(C)=O`, the mutagenic call (Test System: AMES SALMONELLA TYPHIMURIUM, Strain/Indicator: TA100, Metabolic Activation: NONE, Method: STANDARD PLATE) is “active; positive” and the mutagenic call (Test System: AMES SALMONELLA TYPHIMURIUM, Strain/Indicator: TA100, Metabolic Activation: RAT, S-9, AROCLOR, Method: STANDARD PLATE) was “active; positive”.
Regarding `Cc1cc(-c2ccccc2C)ccc1N`, the mutagenic call (Test System: AMES SALMONELLA TYPHIMURIUM, Strain/Indicator: TA98, Metabolic Activation: RAT, LIVER, S-9, AROCLOR 1254, Method: STANDARD PLATE) was “active; positive”; the mutagenic call (Test System: AMES SALMONELLA TYPHIMURIUM, Strain/Indicator: TA100, Metabolic Activation: RAT, LIVER, S-9, AROCLOR 1254, Method: STANDARD PLATE) is “active; positive”; the mutagenic call (Test System: AMES SALMONELLA TYPHIMURIUM, Strain/Indicator: TA1538, Metabolic Activation: RAT, LIVER, S-9, AROCLOR 1254, Method: STANDARD PLATE) is “active; positive”; the mutagenic call (Test System: UDS RODENT HEPATOCYTES, Strain/Indicator: THY INCORP (NON-S-PHASE), Method: AUTORADIOGRAPHY) was “active; positive”.
